Laboratory results published in US11198713B2, “Agents modulating beta-catenin functions and methods thereof” (FOG PHARMACEUTICALS, INC., priority 2017, dated 2021).
pEC50: −log10 of the molar value. ≈ marks a conversion by molar mass, not a printed value. Where two headings read alike, the source gives them in different places. Numbered stars: 1 amine (or outer) side, 2 acyl side, 3 side chain; on linkers, the order of the positions; unused ones are H or OH. Bridge positions count the residues as written; N and C are the ends. Square brackets hold non-standard residues; d marks the D form. Peptide text beside a SMILES is read from it. 3Aminoazetidine3carboxyl = O=C(C1(N[*:1])CN([*:3])C1)[*:2]; dαMeOrn(Me) = CN(CCC[C@@](C)(N[*:1])C(=O)[*:2])[*:3]; dαMeDab(Me) = CN(CC[C@@](C)(N[*:1])C(=O)[*:2])[*:3]; αMeDab(Me) = CN(CC[C@](C)(N[*:1])C(=O)[*:2])[*:3]; X8 = CN(CC=[*:3])CCC[C@](C)(N[*:1])C(=O)[*:2]; X4 = O=C([C@]1(N[*:1])CCN(CC=[*:3])C1)[*:2]; X3 = O=C([C@@]1(N[*:1])CCN([*:3])C1)[*:2]; X1 = O=C([C@]1(N[*:1])CCN([*:3])C1)[*:2]; X9 = C[C@](CCC=[*:3])(N[*:1])C(=O)[*:2]; X2 = O=C(OCC=CCOC(=O)[*:2])[*:1]; R8 = C=CCCCCCC[C@@](C)(N)C(=O)O; R5 = C=CCCC[C@@](C)(N)C(=O)O

How the values were obtained:
[1] = target: T1, full-length beta-catenin (Axin site) (Homo sapiens, UniProt P35222); assay: Competition fluorescence polarization assay (Axin site probe); type: binding; settings: competition fluorescence polarization, Table 2; read-out: in vitro FP EC50
T1 construct: 15 nM full-length beta-catenin, 20 nM FITC labeled peptide in buffer
T1 sequence (P35222 1-781): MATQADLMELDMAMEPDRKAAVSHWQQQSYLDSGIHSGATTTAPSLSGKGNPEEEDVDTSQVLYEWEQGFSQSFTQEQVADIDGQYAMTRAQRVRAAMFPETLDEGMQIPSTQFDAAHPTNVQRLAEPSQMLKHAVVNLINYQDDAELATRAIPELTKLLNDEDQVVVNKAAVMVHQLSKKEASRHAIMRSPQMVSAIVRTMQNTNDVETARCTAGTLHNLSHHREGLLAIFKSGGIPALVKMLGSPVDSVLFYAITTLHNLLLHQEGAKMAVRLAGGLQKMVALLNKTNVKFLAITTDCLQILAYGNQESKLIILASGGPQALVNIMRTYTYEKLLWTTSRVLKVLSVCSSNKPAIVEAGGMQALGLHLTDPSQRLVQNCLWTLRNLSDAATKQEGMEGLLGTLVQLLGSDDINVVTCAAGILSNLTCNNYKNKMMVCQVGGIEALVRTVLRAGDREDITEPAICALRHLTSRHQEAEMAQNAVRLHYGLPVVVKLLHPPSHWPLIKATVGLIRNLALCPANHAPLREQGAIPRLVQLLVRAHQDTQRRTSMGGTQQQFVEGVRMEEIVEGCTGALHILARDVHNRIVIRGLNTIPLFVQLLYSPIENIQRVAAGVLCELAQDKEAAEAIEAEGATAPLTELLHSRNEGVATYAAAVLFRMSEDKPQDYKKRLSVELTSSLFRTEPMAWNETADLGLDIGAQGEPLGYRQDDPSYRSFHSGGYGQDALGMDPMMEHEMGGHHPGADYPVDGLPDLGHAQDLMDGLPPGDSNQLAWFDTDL
Outline: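 Competition FP: 15 nM full-length β-catenin pre-incubated 5 min with 20 nM FITC-labelled stapled Axin-site peptide, then titrated peptide added (3-fold series from 5 μM) for 15 min in the dark. Buffer 50 mM Tris pH 8.0, 250 mM NaCl, 2% glycerol, 0.5 mM EDTA; duplicate reads.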

[2] = Solubility in DPBS (A280 of supernatant); type: physicochemical; settings: DPBS
Experimental: Suitable assays for assessing solubility are widely known in the art and can be utilized in accordance with the present disclosure. In some embodiments, in an exemplary protocol, dried peptide was reconstituted in DPBS (DPBS, 1×, cell culture grade, Sigma D8537) in triplicate, vortexed, sonicated and then centrifuged. Absorbance of the supernatant was measured at A280 (Nanodrop 2000) and the concentration was determined using the extinction coefficient for tryptophan. Exemplary solubility data are presented in, e.g., Table 2.

[3] = Table 3 Part A, read-out: Solubility in DPBS
[4] = Table 3 Part B, amino-stapled product, read-out: Solubility in DPBS

SMILES	pEC50 [1]	Solubility in DPBS ([2]; Table 3 Part A)	solubility thermodynamic [2, 3] [µM]	solubility ([2]; Table 2, read-out: Solubility) [µM]	solubility [2, 4] [µM]	solubility [2, 3] [µM]
CC[C@H](C)[C@@H]1NC(=O)[C@H](Cc2c[nH]cn2)NC(=O)[C@H](C)NC(=O)[C@H](CC(=O)O)NC(=O)[C@H](CC(C)C)NC(=O)[C@H]([C@@H](C)CC)NC(=O)[C@](C)(NC(=O)[C@H](C)NC(C)=O)CCCC=CCOC(=O)N(C)CCC[C@@](C)(C(=O)N[C@@H](CCCNC(=N)N)C(=O)N[C@H](C(=O)N[C@@H](Cc2c[nH]c3ccccc23)C(N)=O)C(C)C)NC1=O (single isomer, unassigned) [FP0510c Isomer 1, Ac-A-R5-I-L-D-A-H-I-MH-R-V-W-NH2]	> 7.00	65 (Isomer 1) μM	–	–	–	–
CC[C@H](C)[C@@H]1NC(=O)[C@H](Cc2c[nH]cn2)NC(=O)[C@H](C)NC(=O)[C@H](CC(=O)O)NC(=O)[C@H](CC(C)C)NC(=O)[C@H]([C@@H](C)CC)NC(=O)[C@](C)(NC(=O)[C@H](C)NC(C)=O)CCN(C)C(=O)OCC=CCOC(=O)N2CC[C@](C(=O)N[C@@H](CCCNC(=N)N)C(=O)N[C@H](C(=O)N[C@@H](Cc3c[nH]c4ccccc34)C(N)=O)C(C)C)(C2)NC1=O [FP0598c, Ac-A-MG-I-L-D-A-H-I-MC-R-V-W-NH2] (Ac-A[dαMeDab(Me)]ILDAHI[X3]RVW-NH2; linker 2-9 via X2)	> 7.00	–	91 (≈ 147 µg/mL)	–	–	–
CC[C@H](C)[C@@H]1NC(=O)[C@H](Cc2c[nH]cn2)NC(=O)[C@H](C)NC(=O)[C@H](CC(=O)O)NC(=O)[C@H](CC(C)C)NC(=O)[C@H]([C@@H](C)CC)NC(=O)[C@](C)(NC(=O)[C@H](C)NC(C)=O)CCCCCCCCCOC(=O)N2CC[C@@](C(=O)N[C@@H](CCCNC(=N)N)C(=O)N[C@H](C(=O)N[C@@H](Cc3c[nH]c4ccccc34)C(N)=O)C(C)C)(C2)NC1=O [FP0217rc, Ac-A-R8-I-L-D-A-H-I-MB-R-V-W-NH2]	> 7.00	–	–	26 (≈ 41.2 µg/mL)	–	–
CC[C@H](C)[C@@H]1NC(=O)[C@H](Cc2c[nH]cn2)NC(=O)[C@H](C)NC(=O)[C@H](CC(=O)O)NC(=O)[C@H](CC(C)C)NC(=O)[C@H]([C@@H](C)CC)NC(=O)[C@](C)(NC(=O)[C@H](C)NC(C)=O)CCCCCCC=CCN2CC[C@@](C(=O)N[C@@H](CCCNC(=N)N)C(=O)N[C@H](C(=O)N[C@@H](Cc3c[nH]c4ccccc34)C(N)=O)C(C)C)(C2)NC1=O [FP0217a, Ac-A-R8-I-L-D-A-H-I-MB-R-V-W-NH2] (Ac-A[R8]ILDAHI[X4]RVW-NH2; staple 2-9)	< 5.30	–	–	111 (≈ 171 µg/mL)	111 (≈ 171 µg/mL)	–
CC[C@H](C)[C@@H]1NC(=O)[C@H](Cc2c[nH]cn2)NC(=O)[C@H](C)NC(=O)[C@H](CC(=O)O)NC(=O)[C@H](CC(C)C)NC(=O)[C@H]([C@@H](C)CC)NC(=O)[C@](C)(NC(=O)[C@H](C)NC(C)=O)CCCCC=CCOC(=O)N(C)CCC[C@@](C)(C(=O)N[C@@H](CCCNC(=N)N)C(=O)N[C@H](C(=O)N[C@@H](Cc2c[nH]c3ccccc23)C(N)=O)C(C)C)NC1=O (single isomer, unassigned) [FP0511c Isomer 2, Ac-A-R6-I-L-D-A-H-I-MH-R-V-W-NH2]	> 7.00	24 (Isomer 2) μM	–	–	–	–
CC[C@H](C)[C@@H]1NC(=O)[C@H](Cc2c[nH]cn2)NC(=O)[C@H](C)NC(=O)[C@H](CC(=O)O)NC(=O)[C@H](CC(C)C)NC(=O)[C@H]([C@@H](C)CC)NC(=O)[C@](C)(NC(=O)[C@H](C)NC(C)=O)CCCCC=CCOC(=O)N(C)CCC[C@@](C)(C(=O)N[C@@H](CCCNC(=N)N)C(=O)N[C@H](C(=O)N[C@@H](Cc2c[nH]c3ccccc23)C(N)=O)C(C)C)NC1=O (single isomer, unassigned) [FP0511c Isomer 1, Ac-A-R6-I-L-D-A-H-I-MH-R-V-W-NH2]	> 7.00	49 (Isomer 1) μM	–	–	–	–
CC[C@H](C)[C@@H]1NC(=O)[C@H](Cc2c[nH]cn2)NC(=O)[C@H](C)NC(=O)[C@H](CC(=O)O)NC(=O)[C@H](CC(C)C)NC(=O)[C@H]([C@@H](C)CC)NC(=O)[C@](C)(NC(=O)[C@H](C)NC(C)=O)CCC=CCN(C)CCC[C@@](C)(C(=O)N[C@@H](CCCNC(=N)N)C(=O)N[C@H](C(=O)N[C@@H](Cc2c[nH]c3ccccc23)C(N)=O)C(C)C)NC1=O [FP0509a, Ac-A-R4-I-L-D-A-H-I-MH-R-V-W-NH2] (Ac-A[X9]ILDAHI[X8]RVW-NH2; staple 2-9)	5.30 to 6.30	–	–	192 (≈ 291 µg/mL)	192 (≈ 291 µg/mL)	–
CC[C@H](C)[C@@H]1NC(=O)[C@H](Cc2c[nH]cn2)NC(=O)[C@H](C)NC(=O)[C@H](CC(=O)O)NC(=O)[C@H](CC(C)C)NC(=O)[C@H]([C@@H](C)CC)NC(=O)[C@](C)(NC(C)=O)CCCCCCC=CCOC(=O)N2CC[C@@](C(=O)N[C@@H](CCCNC(=N)N)C(=O)N[C@H](C(=O)N[C@@H](Cc3c[nH]c4ccccc34)C(N)=O)C(C)C)(C2)NC1=O [FP0220c, Ac-R8-I-L-D-A-H-I-MB-R-V-W-NH2]	> 7.00	–	–	14 (≈ 21.2 µg/mL)	–	–
CC[C@H](C)[C@@H]1NC(=O)[C@H](Cc2c[nH]cn2)NC(=O)[C@H](C)NC(=O)[C@H](CC(=O)O)NC(=O)[C@H](CC(C)C)NC(=O)[C@H]([C@@H](C)CC)NC(=O)[C@](C)(NC(=O)[C@H](C)NC(C)=O)CCCN(C)C(=O)OCC=CCOC(=O)N(C)CC[C@](C)(C(=O)N[C@@H](CCCNC(=N)N)C(=O)N[C@H](C(=O)N[C@@H](Cc2c[nH]c3ccccc23)C(N)=O)C(C)C)NC1=O [FP0588c, Ac-A-MI-I-L-D-A-H-I-MG-R-V-W-NH2] (Ac-A[dαMeOrn(Me)]ILDAHI[dαMeDab(Me)]RVW-NH2; linker 2-9 via X2)	> 7.00	–	–	133 (≈ 219 µg/mL)	–	133 (≈ 219 µg/mL)
CC[C@H](C)[C@@H]1NC(=O)[C@H](Cc2c[nH]cn2)NC(=O)[C@H](C)NC(=O)[C@H](CC(=O)O)NC(=O)[C@H](CC(C)C)NC(=O)[C@H]([C@@H](C)CC)NC(=O)[C@@](C)(NC(=O)[C@H](C)NC(C)=O)CCN(C)C(=O)OCC=CCOC(=O)N2CC[C@@](C(=O)N[C@@H](CCCNC(=N)N)C(=O)N[C@H](C(=O)N[C@@H](Cc3c[nH]c4ccccc34)C(N)=O)C(C)C)(C2)NC1=O [FP0626c, Ac-A-MF-I-L-D-A-H-I-MB-R-V-W-NH2] (Ac-A[αMeDab(Me)]ILDAHI[X1]RVW-NH2; linker 2-9 via X2)	> 7.00	–	–	40 (≈ 64.6 µg/mL)	–	40 (≈ 64.6 µg/mL)
CC[C@H](C)[C@@H]1NC(=O)[C@H](Cc2c[nH]cn2)NC(=O)[C@H](C)NC(=O)[C@H](CC(=O)O)NC(=O)[C@H](CC(C)C)NC(=O)[C@H]([C@@H](C)CC)NC(=O)C2(NC(=O)[C@H](C)NC(C)=O)CN(C2)C(=O)OCC=CCOC(=O)N2CC[C@](C(=O)N[C@@H](CCCNC(=N)N)C(=O)N[C@H](C(=O)N[C@@H](Cc3c[nH]c4ccccc34)C(N)=O)C(C)C)(C2)NC1=O [FP0616c, Ac-A-MA-I-L-D-A-H-I-MC-R-V-W-NH2] (Ac-A[3Aminoazetidine3carboxyl]ILDAHI[X3]RVW-NH2; linker 2-9 via X2)	> 7.00	–	–	56 (≈ 88.7 µg/mL)	–	56 (≈ 88.7 µg/mL)
CC[C@H](C)[C@@H]1NC(=O)[C@H](Cc2c[nH]cn2)NC(=O)[C@H](C)NC(=O)[C@H](CC(=O)O)NC(=O)[C@H](CC(C)C)NC(=O)[C@H]([C@@H](C)CC)NC(=O)[C@](C)(NC(=O)[C@H](C)NC(C)=O)CCCC=CCOC(=O)N(C)CCC[C@@](C)(C(=O)N[C@@H](CCCNC(=N)N)C(=O)N[C@H](C(=O)N[C@@H](Cc2c[nH]c3ccccc23)C(N)=O)C(C)C)NC1=O (single isomer, unassigned) [FP0510c Isomer 2, Ac-A-R5-I-L-D-A-H-I-MH-R-V-W-NH2]	> 7.00	31 (Isomer 2) μM	–	–	–	–
CC[C@H](C)[C@@H]1NC(=O)[C@H](Cc2c[nH]cn2)NC(=O)[C@H](C)NC(=O)[C@H](CC(=O)O)NC(=O)[C@H](CC(C)C)NC(=O)[C@H]([C@@H](C)CC)NC(=O)[C@](C)(NC(=O)[C@H](C)NC(C)=O)CCCC=CCN(C)CCC[C@@](C)(C(=O)N[C@@H](CCCNC(=N)N)C(=O)N[C@H](C(=O)N[C@@H](Cc2c[nH]c3ccccc23)C(N)=O)C(C)C)NC1=O [FP0510a, Ac-A-R5-I-L-D-A-H-I-MH-R-V-W-NH2] (Ac-A[R5]ILDAHI[X8]RVW-NH2; staple 2-9)	5.30 to 6.30	–	–	165 (≈ 252 µg/mL)	165 (≈ 252 µg/mL)	–
